Where “and” joins values, the source holds several entries; their conditions need not be identical. Equal values may be shown once. Inconclusive results and toxic doses are left out.

The test system of this experiment is BDF1 mice, B16 melanoma ip, median survival T/C. The experiment is described as follows: NCI In Vivo Anticancer Drug Screen. Data for tumor model B16 Melanoma (intraperitoneal) in B6D2F1 (BDF1) mice. Conditions: endpoint: median survival time, higher = longer survival. Summed up:
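Mice with transplantable tumors; drug vs vehicle groups; endpoint survival or tumor size; value = T/C.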

Setting [1] is: dose: 20.0 mg/kg/injection, schedule: Q01DX009 (ip), vehicle: saline with Tween-80.
Where [2] appears, read: dose: 5.0 mg/kg/injection, schedule: Q01DX009 (ip), vehicle: saline with Tween-80.
Setting [3] is: dose: 10.0 mg/kg/injection, schedule: Q01DX009 (ip), vehicle: saline with Tween-80.
The mark [4] stands for this setting: dose: 25.0 mg/kg/injection, schedule: Q01DX009 (ip), vehicle: Klucel (hydroxypropylcellulose) (HPC).
Setting [5] is: dose: 50.0 mg/kg/injection, schedule: Q01DX009 (ip), vehicle: Klucel (hydroxypropylcellulose) (HPC).
The mark [6] stands for this setting: dose: 100.0 mg/kg/injection, schedule: Q01DX009 (ip), vehicle: Klucel (hydroxypropylcellulose) (HPC).
The mark [7] stands for this setting: dose: 400.0 mg/kg/injection, schedule: Q01DX009 (ip), vehicle: Klucel (hydroxypropylcellulose) (HPC).
The mark [8] stands for this setting: dose: 50.0 mg/kg/injection, schedule: Q01DX009 (ip), vehicle: saline with Tween-80.
Setting [9] is: dose: 6.25 mg/kg/injection, schedule: Q01DX009 (ip), vehicle: Klucel (hydroxypropylcellulose) (HPC).
Where [10] appears, read: dose: 12.5 mg/kg/injection, schedule: Q01DX009 (ip), vehicle: Klucel (hydroxypropylcellulose) (HPC).
Setting [11] is: dose: 200.0 mg/kg/injection, schedule: Q01DX009 (ip), vehicle: Klucel (hydroxypropylcellulose) (HPC).
Where [12] appears, read: dose: 25.0 mg/kg/injection, schedule: Q01DX009 (ip), vehicle: saline with Tween-80.

Take `CCCCCCCCCCCC(=O)N(CCCC)CCCC`: the T/C reads like this: (dose: 37.5 mg/kg/injection, schedule: Q01DX009 (ip), vehicle: Klucel (hydroxypropylcellulose) (HPC)) 101 % of control; (dose: 75.0 mg/kg/injection, schedule: Q01DX009 (ip), vehicle: Klucel (hydroxypropylcellulose) (HPC)) 101 % of control; (dose: 150.0 mg/kg/injection, schedule: Q01DX009 (ip), vehicle: Klucel (hydroxypropylcellulose) (HPC)) 97 % of control.

As to `OCc1cc2c([nH]c3ccccc32)c(C(O)CO)n1` (stereo unspecified), the T/C is 102 % of control under setting [1]; 99 % of control (dose: 40.0 mg/kg/injection, schedule: Q01DX009 (ip), vehicle: saline with Tween-80); 97 % of control (dose: 80.0 mg/kg/injection, schedule: Q01DX009 (ip), vehicle: saline with Tween-80).

Take `CC1CC(C)(O)C2C3(C)CCCC2(COC3=O)C12CCC1(CCOC1=O)O2` (stereo unspecified): the T/C is, setting by setting: (dose: 2.5 mg/kg/injection, schedule: Q01DX009 (ip), vehicle: saline with Tween-80) 102 % of control; under setting [2], 94 % of control; under setting [3], 98 % of control.

As to `COc1cccc2c1C(=O)c1c(O)c3c(c(O)c1C2=O)C[C@@](O)(/C(C)=N\NC(=O)CO)C[C@@H]3OC1CC(N)C(O)C(C)O1` (stereo partly specified), the T/C is, setting by setting: (dose: 0.39 mg/kg/injection, schedule: Q01DX009 (ip), vehicle: saline) 117 % of control; (dose: 1.56 mg/kg/injection, schedule: Q01DX009 (ip), vehicle: saline) 162 % of control; (dose: 2.5 mg/kg/injection, schedule: Q01DX001 (ip), vehicle: water) 97 % of control and 100 % of control; (dose: 3.12 mg/kg/injection, schedule: Q01DX009 (ip), vehicle: saline) 173 % of control and 218 % of control; (dose: 6.25 mg/kg/injection, schedule: Q01DX009 (ip), vehicle: saline) 206 % of control and 375 % of control; (dose: 10.0 mg/kg/injection, schedule: Q01DX001 (ip), vehicle: water) 108 % of control and 250 % of control. In addition, the T/C was 87 % of control and 102 % of control (dose: 20.0 mg/kg/injection, schedule: Q01DX001 (ip), vehicle: water); 95 % of control (dose: 40.0 mg/kg/injection, schedule: Q01DX001 (ip), vehicle: water).

In the case of `O=c1[nH]c(=O)n(C2CC(O)C(CO)O2)cc1Br` (stereo unspecified), the T/C runs as follows: under setting [4], 101 % of control; under setting [5], 117 % of control.

Turning to `NC1=NN(c2ccccc2)CC1`, the T/C is, setting by setting: (dose: 0.5 mg/kg/injection, schedule: Q04DX003 (ip), vehicle: saline with Tween-80) 95 % of control; under setting [2], 104 % of control; under setting [3], 100 % of control; (dose: 10.0 mg/kg/injection, schedule: Q04DX003 (ip), vehicle: saline with Tween-80) 95 % of control; under setting [1], 100 % of control; (dose: 20.0 mg/kg/injection, schedule: Q04DX003 (ip), vehicle: saline with Tween-80) 95 % of control.

`COC(=O)c1ccc(Cl)nc1`: the T/C under setting [6] is 94 % of control and the T/C under setting [7] is 94 % of control.

For `Cc1cc(C)c(OC2=C(c3c(C)cc(C)cc3C)C(=O)c3ccccc32)c(C)c1`, the T/C is 104 % of control under setting [8]; 100 % of control (dose: 100.0 mg/kg/injection, schedule: Q01DX009 (ip), vehicle: saline with Tween-80); 98 % of control (dose: 200.0 mg/kg/injection, schedule: Q01DX009 (ip), vehicle: saline with Tween-80); 91 % of control (dose: 400.0 mg/kg/injection, schedule: Q01DX009 (ip), vehicle: saline with Tween-80).

Turning to `ClCCN(CCCl)c1ccc(/C=C/c2ccccc2)cc1`, the T/C was 98 % of control under setting [9]; 96 % of control under setting [10]; 96 % of control under setting [4]; 90 % of control under setting [5]; 101 % of control under setting [6].

For the compound `COc1cccc2c1CCC1=C2CC=C2CC3(CCC21C)OCCO3` (stereo unspecified), the T/C is 104 % of control (dose: 100.0 mg/kg/injection, schedule: Q04DX003 (sc), vehicle: steriod suspending solution); 86 % of control (dose: 200.0 mg/kg/injection, schedule: Q04DX003 (sc), vehicle: steriod suspending solution); 97 % of control (dose: 400.0 mg/kg/injection, schedule: Q04DX003 (sc), vehicle: steriod suspending solution).

As to `O=S1(=O)C=CCCC=C1`, the T/C was 102 % of control under setting [9]; 98 % of control under setting [10]; 95 % of control under setting [4]; 98 % of control and 102 % of control under setting [5].

As for `Nc1nc(N)c2nc(CN(CCO)c3ccc(C(=O)NC(CCC(=O)O)C(=O)O)cc3)cnc2n1` (stereo unspecified), the T/C is 107 % of control (dose: 0.1 mg/kg/injection, schedule: Q01DX009 (ip), vehicle: Klucel (hydroxypropylcellulose) (HPC)); 101 % of control (dose: 0.2 mg/kg/injection, schedule: Q01DX009 (ip), vehicle: Klucel (hydroxypropylcellulose) (HPC)); 99 % of control (dose: 0.37 mg/kg/injection, schedule: Q01DX009 (ip), vehicle: Klucel (hydroxypropylcellulose) (HPC)); 109 % of control (dose: 0.75 mg/kg/injection, schedule: Q01DX009 (ip), vehicle: Klucel (hydroxypropylcellulose) (HPC)); 157 % of control (dose: 1.0 mg/kg/injection, schedule: Q01DX009 (ip), vehicle: Klucel (hydroxypropylcellulose) (HPC)); 97 % of control (dose: 1.5 mg/kg/injection, schedule: Q01DX009 (ip), vehicle: Klucel (hydroxypropylcellulose) (HPC)).

For the compound `Cc1cccc(NC(=O)c2cccc(C(=O)Nc3cccc(C)c3C)c2)c1C`, the T/C by setting is: under setting [6], 100 % of control; under setting [11], 90 % of control; under setting [7], 86 % of control.

For the compound `Cc1cccc(N2CCN(CCC#N)CC2)c1`, the T/C reads like this: under setting [12], 102 % of control; under setting [8], 108 % of control.

For `CC(CN(C)C)CN1c2ccccc2Sc2ccccc21` (stereo unspecified), the T/C is 104 % of control (dose: 12.5 mg/kg/injection, schedule: Q01DX009 (ip), vehicle: saline with Tween-80) and 101 % of control under setting [12].

As for `O=C(O)CCC(NC(=O)OCc1ccccc1)C(=O)OCc1ccccc1` (stereo unspecified), the T/C under setting [5] was 86 % of control, the T/C under setting [6] was 86 % of control and the T/C under setting [11] was 96 % of control.

With `CCOc1c(Br)cc(Br)cc1C=C(C#N)C#N`, the T/C runs as follows: (dose: 12.5 mg/kg/injection, schedule: Q01DX009 (ip), vehicle: other) 103 % of control; (dose: 25.0 mg/kg/injection, schedule: Q01DX009 (ip), vehicle: other) 98 % of control; (dose: 50.0 mg/kg/injection, schedule: Q01DX009 (ip), vehicle: other) 109 % of control.

Regarding `C=C(C)C1C2CC3(C)C4(CO4)C4OC4C3(O)C1C(=O)O2` (stereo unspecified), the T/C (dose: 0.07 mg/kg/injection, schedule: Q01DX009 (ip), vehicle: Klucel (hydroxypropylcellulose) (HPC)) was 102 % of control; the T/C (dose: 0.15 mg/kg/injection, schedule: Q01DX009 (ip), vehicle: Klucel (hydroxypropylcellulose) (HPC)) is 104 % of control; the T/C (dose: 0.3 mg/kg/injection, schedule: Q01DX009 (ip), vehicle: Klucel (hydroxypropylcellulose) (HPC)) is 106 % of control; the T/C (dose: 0.6 mg/kg/injection, schedule: Q01DX009 (ip), vehicle: Klucel (hydroxypropylcellulose) (HPC)) was 98 % of control; the T/C (dose: 1.2 mg/kg/injection, schedule: Q01DX009 (ip), vehicle: Klucel (hydroxypropylcellulose) (HPC)) is 101 % of control.

Turning to `O=[N+]([O-])c1cc(S(=O)(=O)OCC2CO2)ccc1Cl` (stereo unspecified), the T/C is 100 % of control (dose: 0.1 mg/kg/injection, schedule: Q01DX009 (ip), vehicle: saline with Tween-80); 93 % of control (dose: 0.2 mg/kg/injection, schedule: Q01DX009 (ip), vehicle: saline with Tween-80); 97 % of control (dose: 0.4 mg/kg/injection, schedule: Q01DX009 (ip), vehicle: saline with Tween-80); 95 % of control (dose: 0.8 mg/kg/injection, schedule: Q01DX009 (ip), vehicle: saline with Tween-80).

With `CN(C)CCCN1c2ccccc2Sc2ccc(C(F)(F)F)cc21`, the T/C was 89 % of control (dose: 0.06 mg/kg/injection, schedule: Q01DX009 (ip), vehicle: saline); 97 % of control (dose: 0.25 mg/kg/injection, schedule: Q01DX009 (ip), vehicle: saline); 109 % of control (dose: 0.5 mg/kg/injection, schedule: Q01DX009 (ip), vehicle: saline); 104 % of control (dose: 2.0 mg/kg/injection, schedule: Q01DX009 (ip), vehicle: saline); 109 % of control (dose: 8.0 mg/kg/injection, schedule: Q01DX009 (ip), vehicle: saline).

The values above are taken from PubChem BioAssay AID192 (DTP/NCI, 2004).
